Measurements taken from patent US8546357B2, “Boron-containing small molecules for controlling ectoparasites” (priority 2011, dated 2013).

Tests used:
[1] = Tolerability of oral treatment in dogs; type: in vivo, dog
Method: The therapeutic (knockdown) and residual efficacy of 5, administered orally at a point dose of 25 mg/kg bodyweight, was evaluated against adult American dog tick (D. variabilis) infestations on dogs. Six beagle dogs were allocated to one of two treatment groups, an untreated control group (n=4 dogs) or 5 group (n=2 dogs). On Day 0, two dogs were treated with 5 via oral gavage (25 mg/ml 5, dissolved in a solution of 55% polyethylene glycol-300, 35% propylene glycol and 10% water) at a point dose of approximately 25 mg/kg. Twenty-four (24) hours before treatment (Day −1), all dogs were infested with approximately 50 unfed, adult-stage American dog ticks (D. variabilis; approximately 50% male and 50% female). On Day 1, approximately 24 hours after treatment, thumb counts were conducted to determine the number and life-status classification of ticks present on all dogs (normal, moribund or dead; attached or detached). Ticks were not removed during thumb counts. On Day 2, approximately 48 hours after treatment, all ticks were classified and removed from dogs. Dogs were re-infested with approximately 50 unfed, adult D. variabilis ticks on Days 5 and 12, with tick classification, counts and removal on Days 7 and 14 (approximately 48 hours after each infestation).
The therapeutic (knockdown) and residual efficacy of 7 and 8, each administered orally at a point dose of 25 mg/kg bodyweight, was evaluated against adult tick (Dermacentor variabilis and Rhipicephalus sanguineus) and adult cat flea (Ctenocephalides felis) infestations on dogs. Twelve (12) male and female beagle dogs were randomly allocated to one of three treatment groups, four (4) dogs per group: Untreated control; 7, 25 mg/kg; and 8, 25 mg/kg. On Day −1, all dogs were infested with approximately 50 unfed, adult D. variabilis ticks. On Day 0, dogs were orally administered gelatin capsules containing either 7 or 8 (50% technical active, 47% microcrystalline cellulose and 3% croscarmellose sodium, w/w). Ticks were counted and classified, but not removed, on all dogs on Day 1, approximately 24 hours after treatment. On Day 2, approximately 48 hours after treatment, ticks were counted, classified and removed. Dogs were re-infested with the same number of D. variabilis ticks on Days 5, 12, 19 and 28 and tick counts were conducted on Days 7, 14, 21 and 30.
The therapeutic (knockdown) and residual efficacy of 7, administered orally at a point dose of 35 mg/kg bodyweight, was evaluated against adult tick (Dermacentor variabilis and Rhipicephalus sanguineus) and adult cat flea (Ctenocephalides felis) infestations on dogs. Twelve (12) male and female beagle dogs were allocated to either an untreated, negative control group or 7 group (n=6 dogs per group). Dogs were infested with approximately 50 unfed, adult D. variabilis ticks on Days −1, 5, 12, 19, 28, 35 and 42. On Day 0, dogs were orally administered gelatin capsules containing Compound 8194 (50% technical active, 47% microcrystalline cellulose and 3% croscarmellose sodium, w/w) at a point dose of 35 mg/kg. […] GM percent efficacy of treatments against both tick species and fleas was calculated using the following formula: […]
The therapeutic efficacy and speed of kill of 7, administered orally at a point dose of 20 mg/kg bodyweight, was evaluated against adult cat flea (Ctenocephalides felis) infestations on dogs. […]

[2] = tested on: cat flea (Ctenocephalides felis); assay: Therapeutic efficacy and speed of kill against adult cat flea infestations on dogs, oral; type: in vivo; conditions: oral capsule 20 mg/kg
Method: The therapeutic efficacy and speed of kill of 7, administered orally at a point dose of 20 mg/kg bodyweight, was evaluated against adult cat flea (Ctenocephalides felis) infestations on dogs. Eighteen (18) male and female beagle dogs were allocated to one of six treatment groups (n=3 dogs per group). Groups 1, 2 and 3 were untreated, negative controls and groups 4, 5 and 6 received 7. On Day −1, all dogs were infested with approximately 100 unfed, adult fleas (approximately 50% male and 50% female). On Day 0, dogs in groups 4, 5 and 6 were orally administered gelatin capsules containing 7, at a point dose of 20 mg/kg (50% technical active, 47% microcrystalline cellulose and 3% croscarmellose sodium, w/w). At eight (8) hours post-treatment, fleas were counted and removed from dogs in groups 1 and 4; at twelve (12) hours post-treatment, fleas were counted and removed from dogs in groups 2 and 5; and at twenty-four (24) hours post-treatment, fleas were counted and removed from dogs in groups 3 and 6. GM percent efficacy of treatments against fleas was calculated using the following formula: […]

## Cc1cc(C2=NOC(c3cc(Cl)c(Cl)c(Cl)c3)(C(F)(F)F)C2)ccc1C(=O)NCc1ccc2c(c1)B(O)OC2(C)C (centres unmarked) [Compound 7, N-((1-Hydroxy-3,3-dimethyl-1,3-dihydrobenzo[c][1,2]oxaborol-6-yl)methyl)-2-methyl-4-(5-(3,4,5-trichlorophenyl)-5-(trifluoromethyl)-4,5-dihydroisoxazol-3-yl)benzamide]
[1]; Example 6, oral capsule 25 mg/kg
  tolerability: well tolerated
[1]; Example 7, oral capsule 35 mg/kg
  tolerability: well tolerated
[2]; 8 hours post-treatment
  % efficacy: (90.4) %
  Geometric mean group live flea counts: 7.9
[2]; 12 hours post-treatment
  Geometric mean group live flea counts: 0.0
[2]; 24 hours post-treatment
  % efficacy: (100) %
  Geometric mean group live flea counts: 0.0
[2]; eight (8) hours of treatment
  knockdown against an existing flea infestation: rapid knockdown
